Results reported in publication PMC10067956, “Pyrazole derivatives of pyridine and naphthyridine as proapoptotic agents in cervical and breast cancer cells” (Scientific Reports, 2023).
Read-outs that look alike come from different tables or passages of the source.

Experiments:
[1] = system: HeLa cells; experiment: MTT cell viability assay, HeLa; assay type: cell-based; settings: 24 h; for inhibition at 100 µM: read-out: %Inhibition at 100 µM, HeLa cell line; for IC50: read-out: IC50 (µM) ± SEM, HeLa Cell Line
Procedure: (§1) The anti-proliferative activity of the studied compounds was determined against breast (MCF-7) and cervical (HeLa) cancer cells by the MTT cell viability assay as described earlier[44],[45]. BHK-21 cells were used as non-cancerous cells to study the effect of these compounds on normal cells. Briefly, 1 × 10^4 cells/well were seeded in 96-well microtiter plate and placed in an incubator (Heracell™ VIOS 160i, Thermo-Fisher Scientific) set for 5% CO2 at 37 °C. The stock solutions of compounds were prepared at 10 mM concentration in DMSO. Initial working solutions were prepared in cell culture medium at 1 mM concentration. […] After 24 h, medium in each well was aspirated and cells were treated for 4 h with serum free medium containing 0.2 mg/mL MTT reagent. The solubilizing reagent (10% acidified sodium dodecyl sulfate in propanol in a 1:1 ratio) was added to solubilize formazan crystals. Plates were kept at 37 °C for 30 min and then placed on a gyratory shaker for few min for complete solubilization of formazan crystals. The optical density was measured at 570 nm by microplate reader and IC50 values were calculated from three independent experiments as previously reported.

[2] = system: MCF-7 cells; experiment: MTT cell viability assay, MCF-7; assay type: cell-based; settings: for inhibition at 100 µM: MCF7, 100 µM, read-out: %Inhibition at 100 µM, MCF-7 cell line; for IC50: read-out: IC50 (µM) ± SEM, MCF-7 cell line
Procedure: as §1

[3] = system: BHK-21 cells; experiment: MTT cell viability assay, non-cancerous BHK-21; assay type: cell-based, Baby Hamster; settings: 24 h, read-out: IC50 (µM) ± SEM, BHK-21 cell line
Procedure: as §1

[4] = system: HeLa cells; experiment: Alkaline comet assay; assay type: cell-based; settings: 5j 6.4 µM 24 h
Procedure: Comet assay is a sensitive method to determine DNA damage which was performed after some modifications in a published protocol. […] The cervical cancer (HeLa) cells were treated with IC50 value of potent compound 5j for 24 h. Cells were harvested, collected and centrifuged to obtain a pellet. Pelleted cells were re-suspended in media. Untreated cells were used as control cells. For the positive control, 2 × 10^4 cells were treated with 20 µM of freshly prepared hydrogen peroxide for 30 min. Slides were prepared by coating with 1% normal melting point agarose (NMPA) on one side and then dried. Samples (2 × 10^4 cells/sample) were re-suspended in 1 mL of PBS. In a tube, 0.4 mL cell suspension was mixed with 1.2 mL of 0.9% low melting point agarose (LMPA) and mixed thoroughly by pipetting. A cell suspension of 65 µL was laid on coated slide and evenly distributed by placing a coverslip over it. Slides were placed at − 20 °C for 10 min. Then the slides were placed at 4 °C in the dark in a lysis buffer of 100 mM EDTA, 10 mM Trizma base, 2.5 M sodium chloride, 10% DMSO and 1% Triton X-100 in distilled water with a pH of 10. After an overnight incubation, slides were washed with chilled distilled water. These slides were then placed in electrophoresis chamber (Wealtec, USA) having chilled (4 °C) alkali unwinding solution (300 mM sodium hydroxide and 1 mM EDTA in distilled water). Electrophoresis was carried out at an adjusted voltage (between 0.7 and 1.0 V/cm) for 35 min in an electrophoresis tank. Slides were then immersed in neutralization solution (0.4 M Trizma base in 800 mL water, pH 7.5) for 10 min in dark. Propidium iodide (20 µL of 0.01 mg/mL) was used as fluorescent dye to stain DNA. Slides were placed in dark at room temperature. After 10 min, images were captured using a fluorescence microscope (Nikon ECLIPSE Ni–U, Japan) at an excitation/emission wavelength of 493/632 nm. Microscopic images were analyzed using ImageJ (ij152-win-java8, National Institutes of Health, Bethesda, USA) and OpenComet (OpenComet_imagej_v1.3.1, USA) where the DNA content in the head and tail of the comets were automatically measured by the software. Results of three independent experiments were expressed as tail length ([…]), %DNA in comet tail and comet tail moment.

Row | SMILES | inhibition at 100 µM ([1]; Homo sapiens) [%] | inhibition at 100 µM ([2]; Homo sapiens, 24 h) [%] | IC50 ([3]; Mesocricetus auratus) [µM] | IC50 ([1]; Homo sapiens) [µM] | other results
1 | N#CC1=C(N)Nc2n[nH]cc2C12C(=O)Nc1ccc(Br)cc12 (centres unmarked) [4e] | 24.9 | 7.24 | – | – | –
2 | Nc1nc2ccc(F)cc2c2c1c(N)nc1n[nH]cc12 [5c] | 69.2 | 4.12 | 42.4 ± 1.95 | 10.3 ± 0.51 | –
3 | Cc1[nH]nc2c1C1(C(=O)Nc3ccc(Cl)cc31)C(C#N)=C(N)N2 (centres unmarked) [4k] | 3.84 | 11.9 | – | – | –
4 | Cc1ccc2c(c1)C1(C(=O)N2)C(C#N)=C(N)Nc2n[nH]cc21 (centres unmarked) [4b] | 45.9 | 1.86 | – | – | –
5 | N#CC1=C(N)Nc2n[nH]cc2C12C(=O)Nc1ccc(OC(F)(F)F)cc12 (centres unmarked) [4g] | 38.6 | 15.2 | – | – | –
6 | Nc1nc2ccccc2c2c1c(N)nc1n[nH]cc12 [5a] | 97.9 | 46.4 | 177 ± 6.11 | 58.91 ± 0.39 | –
7 | Cc1[nH]nc2nc(N)c3c(N)nc4ccc(OC(F)(F)F)cc4c3c12 [5n] | 63.2 | 10.5 | 46.6 ± 1.03 | 32.7 ± 2.16 | –
8 | Cc1ccc2c(c1)C1(C(=O)N2)C(C#N)=C(N)Nc2n[nH]c(C)c21 (centres unmarked) [4i] | 39.7 | 1.42 | – | – | –
9 | Cc1[nH]nc2c1C1(C(=O)Nc3ccccc31)C(C#N)=C(N)N2 (centres unmarked) [4h] | 5.08 | 2.38 | – | – | –
10 | OO [H2O2, Hydrogen Peroxide, reference compound] | – | – | – | – | %DNA in tail ± SD [4]: 55.11 ± 0.68%; Tail length ± SD ([4]; H2O2 20 µM 30 min (positive control)): 84.14 ± 3.43 µM
11 | Cc1[nH]nc2nc(N)c3c(N)nc4ccccc4c3c12 [5h] | 93.6 | 37.8 | 31.4 ± 1.33 | 14.4 ± 1.21 | –
12 | Cc1[nH]nc2c1C1(C(=O)Nc3ccc(F)cc31)C(C#N)=C(N)N2 (centres unmarked) [4j] | 5.68 | 2.22 | – | – | –
13 | Cc1ccc2nc(N)c3c(N)nc4n[nH]cc4c3c2c1 [5b] | 98.4 | 96.4 | 126 ± 1.63 | 32.1 ± 1.14 | IC50 ([2]; Homo sapiens, MCF7, 24 h): 41.4 ± 0.47 µM
14 | Cc1[nH]nc2c1C1(C(=O)Nc3ccc(OC(F)(F)F)cc31)C(C#N)=C(N)N2 (centres unmarked) [4n] | 27.8 | 0.15 | – | – | –
15 | Cc1[nH]nc2c1C1(C(=O)Nc3ccc([N+](=O)[O-])cc31)C(C#N)=C(N)N2 (centres unmarked) [4m] | 22.7 | 23.3 | – | – | –
16 | N#CC1=C(N)Nc2n[nH]cc2C12C(=O)Nc1ccc(F)cc12 (centres unmarked) [4c] | > 50 | 26.8 | 49.2 ± 2.01 | 90.2 ± 2.18 | %Inhibition at 100 µM, HeLa cell line [1]: 57.80%
17 | N#CC1=C(N)Nc2n[nH]cc2C12C(=O)Nc1ccc([N+](=O)[O-])cc12 (centres unmarked) [4f] | 26.2 | 5.23 | – | – | –
18 | N#CC1=C(N)Nc2n[nH]cc2C12C(=O)Nc1ccccc12 (centres unmarked) [4a] | 34.5 | 28.2 | – | – | –
19 | Nc1nc2ccc(OC(F)(F)F)cc2c2c1c(N)nc1n[nH]cc12 [5g] | 61.3 | 31.4 | – | – | –
20 | Nc1nc2ccc(Cl)cc2c2c1c(N)nc1n[nH]cc12 [5d] | 71.4 | 27.3 | 166.8 ± 0.95 | 40.7 ± 1.42 | –
21 | Cc1[nH]nc2nc(N)c3c(N)nc4ccc([N+](=O)[O-])cc4c3c12 [5m] | 44.9 | 10.3 | – | – | –
22 | Cc1[nH]nc2c1C1(C(=O)Nc3ccc(Br)cc31)C(C#N)=C(N)N2 (centres unmarked) [4l] | 39.3 | 1.78 | – | – | –
23 | Nc1nc2ccc([N+](=O)[O-])cc2c2c1c(N)nc1n[nH]cc12 [5f] | – | 9.54 | 101 ± 2.61 | 69.1 ± 0.99 | –
24 | Nc1nc2ccc(Br)cc2c2c1c(N)nc1n[nH]cc12 [5e] | 98.3 | 96.8 | 84.1 ± 3.31 | 30.2 ± 1.15 | IC50 ([2]; Homo sapiens, MCF7, 24 h): 18.6 ± 0.29 µM
25 | Cc1[nH]nc2nc(N)c3c(N)nc4ccc(Br)cc4c3c12 [5l] | 81.6 | 28.2 | 152 ± 2.61 | 38.5 ± 0.63 | –
26 | N#CC1=C(N)Nc2n[nH]cc2C12C(=O)Nc1ccc(Cl)cc12 (centres unmarked) [4d] | – | 18.9 | 246 ± 6.71 | 51.6 ± 0.99 | %Inhibition at 100 µM, HeLa cell line [1]: 99.45%
27 | N.N.[Cl][Pt][Cl] [Cisplatin, reference compound] | – | – | – | – | IC50 [3]: 24.7 ± 0.37 µM; %Inhibition at 100 µM, HeLa cell line [1]: 98.63%; IC50 [1]: 11.3 ± 0.78 µM; %Inhibition at 100 µM, MCF-7 cell line ([2]; 100 µM, 24 h): 73.12%; IC50 ([2]; 24 h): 6.22 ± 0.72 µM
28 | Cc1ccc2nc(N)c3c(N)nc4n[nH]c(C)c4c3c2c1 [5i] | 63.5 | 58.2 | 134 ± 1.71 | 61.9 ± 1.76 | IC50 ([2]; Homo sapiens, MCF7, 24 h): 54.7 ± 0.63 µM
